Like-named read-outs stand apart in the source and are kept apart here.

This note sets out measurements from patent US20060030585A1, “Tricyclic delta-opioid modulators” (priority 2004, published 2006).

The target in experiment [1] is T1, delta opioid receptor (NG108-15 cell membranes) (Mus musculus, UniProt P32300).
T1 construct: NG108-15 cell membranes were purchased from Applied Cell Sciences (Rockville, Md.); host or cells: NG108-15 cell membranes (purchased)
Kind of experiment: [35S]GTPγS binding assay in NG108-15 cell membranes (delta opioid). In kind it is biochemical. Conditions: agonist-stimulated [35S]GTPγS binding. How it is done: [^35S]GTPγS Binding Assay in NG108-15 Cell Membranes (delta opioid)
Methods: NG108-15 cell membranes were purchased from Applied Cell Sciences (Rockville, Md.). 8 mg/mL of membrane protein suspended in 10 mM TRIS-HCl pH 7.2, 2 mM EDTA, 10% sucrose. Membranes were maintained at 4-8° C. A 1 mL volume of membranes was added into 10 mL cold binding assay buffer. The assay buffer contained 50 mM Tris, pH 7.6, 5 mM MgCl2, 100 mM NaCl, 1 mM DTT and 1 mM EGTA. The membrane suspension was homogenized twice with a Polytron, and centrifuged at 3000 rpm for 10 min. The supernatant was then centrifuged at 18,000 rpm for 20 min. Ten mL assay buffer was added into the pellet containing tube. The pellet and buffer were mixed with a Polytron.
Incubation procedure: The pellet membranes (75 μg/mL) were preincubated with SPA (10 mg/mL) at 25° C. for 45 min in the assay buffer. […] GTPγS in the same Tris buffer containing 100 μM GDP in total volume of 200 μL. Increasing concentrations of receptor agonists were used to stimulate [35S]-GTPγS binding. The basal binding was tested in the absence of agonists and non-specific binding was tested in the presence of 10 μM unlabeled GTPγS. The data were analyzed on a Packard Top Count.
% of Basal=(stimulated−non specific)*100/(basal−non specific). EC50 value values were calculated using GraphPad Prism.
On the technique in general: GTPγS resists hydrolysis and so accumulates on activated G proteins.

A further experiment concerns the target mu opioid receptor (Rattus norvegicus, UniProt P33535). In words: Rat brain mu opioid receptor binding assay ([3H]DAMGO). To be noted: Rat mu opioid receptor binding constant, rat forebrain membranes, ~0.8 nM [3H]DAMGO. The procedure: Rat Brain Mu Opioid Receptor Binding Assay
(§1) Procedure: Male, Sprague Dawley rats (150-250 g, VAF, Charles River, Kingston, N.Y.) were killed by CO2, and their brains removed and placed immediately in ice cold Tris HCl buffer (50 mM, pH 7.4). The forebrains were separated from the remainder of the brain by a coronal transection, beginning dorsally at the colliculi and passing ventrally through the midbrain-pontine junction. After dissection, the forebrains were homogenized in Tris buffer in a Teflon®-glass homogenizer. The homogenate was diluted to a concentration of 1 g of forebrain tissue per 80 mL Tris and centrifuged at 39,000×g for 10 min. The pellet was resuspended in the same volume of Tris buffer containing 5 mM MgCl2 with several brief pulses from a Polytron homogenizer. This particulate preparation was used for the delta opioid binding assays.
Analysis: The data from the scintillation counter were used to calculate either the % inhibition compared to control binding (when only a single concentration of test compound was evaluated) or a Ki value (when a range of concentrations tested). Percent inhibition was calculated as: [(total dpm-test compound dpm)/(total dpm-nonspecific dpm)]*100. Kd and Ki values were calculated using GraphPad PRISM data analysis program.

In the next experiment the target is delta opioid receptor (Rattus norvegicus, UniProt P33533). Kind of experiment: Rat brain delta opioid receptor binding assay ([3H]DPDPE). Conditions: Rat delta opioid receptor binding constant, rat forebrain membranes, ~4 nM [3H]DPDPE. The procedure:
Rat Brain Delta Opioid Receptor Binding Assay
as §1, with “assays. Following incubation with the delta selective peptide ligand ˜4 nM [^3H]DPDPE at 25° C. for 2.5 h in a 96-well plate with total volume of 1 mL, the plate contents were filtered through Wallac filtermat B sheets on a Tomtec 96-well harvester. The filters were rinsed three times with 2 mL of 10 mM HEPES (pH 7.4), and dried in a 650 W microwave oven for 1.75 min twice. To each sample area 2×50 μL of Betaplate Scint scintillation fluid (LKB) was added and the radioactivity quantified on a LKB (Wallac) 1205 BetaPlate liquid scintillation counter.” for “assays.”
Analysis: The data from the scintillation counter were used to calculate either the % inhibition compared to control binding (when only a single concentration of test compound was evaluated) or a Ki value (when a range of concentrations was tested). Percent inhibition was calculated as: [(total dpm-test compound dpm)/(total dpm-nonspecific dpm)]*100. Kd and Ki values were calculated using GraphPad PRISM data analysis program.

delta opioid receptor, sequence (P33533 whole entry): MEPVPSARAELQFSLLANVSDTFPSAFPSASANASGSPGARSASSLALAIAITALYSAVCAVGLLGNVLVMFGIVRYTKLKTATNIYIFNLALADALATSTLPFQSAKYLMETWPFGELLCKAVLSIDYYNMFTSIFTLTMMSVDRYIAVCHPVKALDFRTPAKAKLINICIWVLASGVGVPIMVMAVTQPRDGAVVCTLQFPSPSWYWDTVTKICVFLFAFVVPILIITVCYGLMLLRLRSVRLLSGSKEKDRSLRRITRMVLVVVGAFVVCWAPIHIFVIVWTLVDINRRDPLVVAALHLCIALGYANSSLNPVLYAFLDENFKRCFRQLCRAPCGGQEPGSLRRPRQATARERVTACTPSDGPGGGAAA
mu opioid receptor, sequence (P33535 whole entry): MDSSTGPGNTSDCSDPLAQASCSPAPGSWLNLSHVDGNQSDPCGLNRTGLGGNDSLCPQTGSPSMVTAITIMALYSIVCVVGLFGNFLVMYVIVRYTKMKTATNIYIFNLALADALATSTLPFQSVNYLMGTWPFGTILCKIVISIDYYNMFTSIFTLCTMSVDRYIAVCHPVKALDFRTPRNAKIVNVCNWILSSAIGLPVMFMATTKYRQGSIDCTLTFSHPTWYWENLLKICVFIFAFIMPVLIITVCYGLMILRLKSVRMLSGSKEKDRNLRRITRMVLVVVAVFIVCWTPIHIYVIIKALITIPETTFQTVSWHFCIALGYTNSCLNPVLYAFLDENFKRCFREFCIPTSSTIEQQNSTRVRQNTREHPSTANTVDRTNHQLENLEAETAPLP
T1 sequence (P32300 whole entry): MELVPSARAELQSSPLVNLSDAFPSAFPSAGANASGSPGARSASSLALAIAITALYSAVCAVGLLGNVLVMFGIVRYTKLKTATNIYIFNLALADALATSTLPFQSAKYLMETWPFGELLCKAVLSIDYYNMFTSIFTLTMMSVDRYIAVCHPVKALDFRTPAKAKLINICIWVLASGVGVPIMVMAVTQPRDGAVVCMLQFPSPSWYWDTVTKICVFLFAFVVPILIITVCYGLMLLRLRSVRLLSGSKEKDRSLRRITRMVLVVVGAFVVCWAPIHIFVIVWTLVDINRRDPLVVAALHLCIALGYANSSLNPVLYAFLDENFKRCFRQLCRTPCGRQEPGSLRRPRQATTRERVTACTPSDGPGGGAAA

With `O=C(NC(CO)Cc1ccccc1)c1ccc2c(c1)Oc1ccccc1C2=C1CC2CCC(C1)N2` (single isomer, unassigned) [Cpd 15], the EC50 – broadly, the concentration giving half of the maximal effect – in experiment [1] (DOR GTPγS EC50, NG108-15 cell membranes) stood at 79 nM. Moreover, the Ki (commonly the equilibrium dissociation constant of an inhibitor or competing ligand from its target) was determined as 414 nM at mu opioid receptor (MOR Ki) and 27.5 nM at delta opioid receptor (DOR Ki).

`c1ccc2c(c1)Oc1cc(-c3nnn[nH]3)ccc1C2=C1CC2CCC(C1)N2` [Cpd 80]: the EC50 in experiment [1] (NG108-15 cell membranes, read-out: DOR GTPγS EC50) amounted to 226 nM.

With `c1ccc(Sc2ccc3c(c2)Sc2ccccc2C3=C2CC3CCC(C2)N3)cc1` [Cpd 83, 3-(3-Phenylsulfanyl-thioxanthen-9-ylidene)-8-aza-bicyclo[3.2.1]octane], the Ki is > 10000 nM at mu opioid receptor (MOR Ki) and 8510 nM on delta opioid receptor (DOR Ki).

Consider `Brc1ccc2c(c1)Sc1ccccc1C2=C1CC2CCC(C1)N2` [Cpd 84, 3-(3-Bromo-thioxanthen-9-ylidene)-8-aza-bicyclo[3.2.1]octane], for which the Ki at mu opioid receptor (MOR Ki) was > 10000 nM; at delta opioid receptor (DOR Ki), 2900 nM.

Regarding `N#Cc1ccc2c(c1)Sc1ccccc1C2=C1CC2CCC(C1)N2` [Cpd 85, 9-(8-Aza-bicyclo[3.2.1]oct-3-ylidene)-9H-thioxanthene-3-carbonitrile], the Ki on mu opioid receptor (MOR Ki) is 2310 nM; on delta opioid receptor (DOR Ki), 629 nM.

As to `O=c1[nH]c(-c2ccc3c(c2)Oc2ccccc2C3=C2CC3CCC(C2)N3)ns1` [Cpd 95], the Ki on mu opioid receptor (read-out: MOR Ki) amounted to 4930 nM; on delta opioid receptor (read-out: DOR Ki), 159 nM.

Take `CC(C)(CO)NC(=O)c1ccc2c(c1)Oc1ccccc1C2=C1CC2CCC(C1)N2` [Cpd 97]: the Ki was 1900 nM on mu opioid receptor (read-out: MOR Ki) and 266 nM on delta opioid receptor (read-out: DOR Ki).

Regarding `COc1cccc2c1Oc1cc(-c3cnc4ccccc4c3)ccc1C2=C1CC2CCC(C1)N2` [Cpd 104], the values for the Ki at mu opioid receptor (read-out: MOR Ki) and at delta opioid receptor (read-out: DOR Ki) were 1710 nM and 246 nM, respectively.

Turning to `COc1cccc2c1Oc1cc(-c3ccoc3)ccc1C2=C1CC2CCC(C1)N2` [Cpd 105], the results for the Ki on mu opioid receptor (read-out: MOR Ki) and at delta opioid receptor (read-out: DOR Ki) were 497 nM and 88 nM, respectively.

As to `COc1cccc2c1Oc1cc(-c3ccsc3)ccc1C2=C1CC2CCC(C1)N2` [Cpd 106], the Ki at mu opioid receptor (read-out: MOR Ki) was 2740 nM; at delta opioid receptor (read-out: DOR Ki) it was 281 nM.

For `COc1cccc2c1Oc1cc(-c3ccncc3)ccc1C2=C1CC2CCC(C1)N2` [Cpd 107], the Ki is 597 nM at mu opioid receptor (read-out: MOR Ki) and 106 nM at delta opioid receptor (read-out: DOR Ki).

Consider `Cn1ccc(-c2ccc3c(c2)Oc2ccccc2C3=C2CC3CCC(C2)N3)n1` [Cpd 111], for which the Ki came out at 2640 nM at mu opioid receptor (MOR Ki) and 220 nM on delta opioid receptor (DOR Ki).

Consider `c1cncc(-c2ccc3c(c2)Sc2ccccc2C3=C2CC3CCC(C2)N3)c1` [Cpd 112, 3-(3-Pyridin-3-yl-thioxanthen-9-ylidene)-8-aza-bicyclo[3.2.1]octane], for which the Ki on mu opioid receptor (MOR Ki) was 1010 nM; on delta opioid receptor (DOR Ki) it was 481 nM.

Take `CC(=O)Nc1ccccc1-c1ccc2c(c1)Sc1ccccc1C2=C1CC2CCC(C1)N2` [Cpd 113]: the results for the Ki at mu opioid receptor (MOR Ki) and at delta opioid receptor (DOR Ki) were 1520 nM and 90 nM, respectively.

For `CN1C2CCC1CC(=C1c3ccccc3Sc3cc(-c4cccnc4)ccc31)C2` [Cpd 114], the Ki on mu opioid receptor (MOR Ki) came out at 109 nM; at delta opioid receptor (DOR Ki), 108 nM.

As for `c1cncc(-c2ccc3c(c2)Sc2ccccc2C3=C2CC3CCC(C2)N3Cc2ncc[nH]2)c1` [Cpd 115], the values for the Ki on mu opioid receptor (MOR Ki) and at delta opioid receptor (DOR Ki) were 60 nM and 91 nM, respectively.

Regarding `c1cncc(-c2ccc3c(c2)Sc2ccccc2C3=C2CC3CCC(C2)N3Cc2ccoc2)c1` [Cpd 116, 8-Furan-3-ylmethyl-3-(3-pyridin-3-yl-thioxanthen-9-ylidene)-8-aza-bicyclo[3.2.1]octane], the Ki on mu opioid receptor (read-out: MOR Ki) was determined as 113 nM; on delta opioid receptor (DOR Ki) it was 93 nM.

Regarding `c1ccc(CN2C3CCC2CC(=C2c4ccccc4Sc4cc(-c5cccnc5)ccc42)C3)nc1` [Cpd 117], the results for the Ki on mu opioid receptor (MOR Ki) and on delta opioid receptor (DOR Ki) were 97 nM and 95 nM, respectively.

Take `CC(=O)Nc1ccccc1-c1ccc2c(c1)Sc1ccccc1C2=C1CC2CCC(C1)N2C` [Cpd 118]: the Ki is 2070 nM at mu opioid receptor (read-out: MOR Ki) and 612 nM on delta opioid receptor (read-out: DOR Ki).

Regarding `CC(=O)Nc1ccccc1-c1ccc2c(c1)Sc1ccccc1C2=C1CC2CCC(C1)N2Cc1ncc[nH]1` [Cpd 119], the Ki at mu opioid receptor (read-out: MOR Ki) was 349 nM; at delta opioid receptor (read-out: DOR Ki), 142 nM.

In the case of `CC(=O)Nc1ccccc1-c1ccc2c(c1)Sc1ccccc1C2=C1CC2CCC(C1)N2Cc1ccoc1` [Cpd 120], the values for the Ki at mu opioid receptor (read-out: MOR Ki) and on delta opioid receptor (DOR Ki) were 183 nM and 54 nM, respectively.

As for `CC(=O)Nc1ccccc1-c1ccc2c(c1)Sc1ccccc1C2=C1CC2CCC(C1)N2Cc1ccccn1` [Cpd 121], the Ki at mu opioid receptor (read-out: MOR Ki) was 137 nM; on delta opioid receptor (DOR Ki) it was 3.7 nM.

In the case of `CC(C)(C)OC(=O)N1C2CCC1CC(=C1c3ccccc3Oc3cc(C(=O)NCCO)ccc31)C2` [Cpd 122], the Ki on mu opioid receptor (read-out: MOR Ki) and at delta opioid receptor (read-out: DOR Ki) was > 10000 nM in each case.

`O=C(NCCO)c1ccc2c(c1)Oc1ccccc1C2=C1CC2CCC(C1)N2` [Cpd 123]: the results for the Ki at mu opioid receptor (read-out: MOR Ki) and at delta opioid receptor (read-out: DOR Ki) were 1020 nM and 106 nM, respectively.

In the case of `O=C(N1C2CCC1CC(=C1c3ccccc3Oc3cc(-c4cccnc4)ccc31)C2)C(F)(F)F` [Cpd 128], the Ki on mu opioid receptor (read-out: MOR Ki) and on delta opioid receptor (read-out: DOR Ki) was > 10000 nM in each case.

Take `O=C(N1C2CCC1CC(=C1c3ccccc3Oc3cc(-c4cccnc4)ccc31)C2)C(F)(F)F` [Cpd 129]: the Ki on mu opioid receptor (read-out: MOR Ki) and on delta opioid receptor (read-out: DOR Ki) was > 10000 nM each time.

As to `CC(=O)Nc1ccccc1-c1ccc2c(c1)Oc1ccccc1C2=C1CC2CCC(C1)N2C(=O)C(F)(F)F` [Cpd 130], the Ki on mu opioid receptor (read-out: MOR Ki) and at delta opioid receptor (read-out: DOR Ki) was > 10000 nM throughout.

For the compound `CC(=O)Nc1ccccc1-c1ccc2c(c1)Oc1ccccc1C2=C1CC2CCC(C1)N2C(=O)C(F)(F)F` [Cpd 131], the inhibitory constant (Ki) at mu opioid receptor (read-out: MOR Ki) and at delta opioid receptor (read-out: DOR Ki) was > 10000 nM throughout.

Consider `COc1cccc2c1Oc1cc(-c3noc(=O)[nH]3)ccc1C2=C1CC2CCC(C1)N2` [Cpd 132, 3-[9-(8-Aza-bicyclo[3.2.1]oct-3-ylidene)-5-methoxy-9H-xanthen-3-yl]-4H-[1,2,4]oxadiazol-5-one], for which the Ki on mu opioid receptor (MOR Ki) was found to be 254 nM; at delta opioid receptor (DOR Ki), 0.32 nM.

For the compound `COc1cccc2c1Oc1cc(-c3noc(=S)[nH]3)ccc1C2=C1CC2CCC(C1)N2` [Cpd 133, 3-[9-(8-Aza-bicyclo[3.2.1]oct-3-ylidene)-5-methoxy-9H-xanthen-3-yl]-4H-[1,2,4]oxadiazole-5-thione], the Ki at mu opioid receptor (MOR Ki) is 371 nM; at delta opioid receptor (DOR Ki), 2.37 nM.

Consider `O=c1[nH]c(-c2ccc3c(c2)Oc2c(O)cccc2C3=C2CC3CCC(C2)N3)no1` [Cpd 134, 3-[9-(8-Aza-bicyclo[3.2.1]oct-3-ylidene)-5-hydroxy-9H-xanthen-3-yl]-4H-[1,2,4]oxadiazol-5-one], for which the inhibitory constant (Ki) on mu opioid receptor (MOR Ki) turned out to be 2 nM; at delta opioid receptor (DOR Ki) it was 0.12 nM.
